{"source": "patent US20250011734A1", "about": "“DGAT1/2-INDEPENDENT ENZYME SYNTHESIZING STORAGE LIPIDS (DIESL)” (STICHTING HET NEDERLANDS KANKER INSTITUUT-ANTONI VAN …, priority 2021, published 2025)", "molecules": {"B1": {"name": "Thioredoxin related transmembrane protein 1 (TMX1), human, endogenous in HAP1 / HeLa cells (enzyme)", "chain": "RRSNVRVITDENWRELLEGDWMIEFYAPWCPACQNLQPEWESFAEWGEDLEVNIAKVDVTEQPGLSGRFIITALPTIYHCKDGEFRRYQGPRTKKDFINFISDKEWKSIEPVSSWFGPGSVLMSSMSALFQLSMWIRTCHNYFIEDLGLPVWGSYTVFALATLFSGLLLGLCMIFVADCLCPSKRRRPQPYPYPSKKLLSESAQPLKKVEEEQEADEEDVSEEEAESKEGTNKDFPQNAIRQRSLGPSLATDKS", "notes": "Endogenous TMX1 of human cell lines (HAP1, HeLa), an ER membrane protein, detected with anti-TMX1 antibodies; also called transmembrane thioredoxin 1; TMX1 polypeptide"}}, "key": {"RPE1 cells": {"system": "RPE1 cells", "experiment": "Mitochondrial membrane potential and ATP levels in RPE1 cells lacking DIESL cultured without lipoproteins", "type": "cell-based", "description": "For BODIPY 493/503 measurements in fixed HAP1 cells, HAP1 cells, grown in 10 cm plates, were collected by trypsinization and were fixed in Fix Buffer I (BD Biosciences) for 10 minutes at 37° C. Cells were pelleted, washed with FACS buffer (10% FBS in PBS), resuspended in FACS buffer and counted. 10 million cells were stained with 1 μg/ml BODIPY 493/503 and 5 μg/ml DAPI (Invitrogen), diluted in FACS buffer, for one hour at room temperature. Cells were washed once in FACS buffer, then passed through a 35 μm nylon mesh cell strainer into a FACS tube. Fluorescence was analyzed on an LSR Fortessa (BD Biosciences) analytical flow cytometer, using 405 and 488 nm lasers to detect DAPI and BODIPY 493/503, respectively. Data were analyzed using FlowJo (BD Life Sciences). Fluorescence plots represent the fluorescent signal measured in single haploid G1 cells, as determined by DAPI fluorescence intensity. […] Fluorescence (using a 561 nm laser) and data were analyzed as above. Fluorescence plots represent the fluorescent signal measured in single cells. Membrane potential was calculated by subtracting the fluorescence mean of depolarized (CCCP-treated) cells. RPE1 cells were plated in 96-well plates and ATP levels were measured using CellTitre-Glo (Promega) according to the manufacturer's instructions. […]"}, "[1]": {"biological_target": "T1, 3xHA-tagged DIESL (human TMEM68, DGAT1/2-Independent Enzyme Synthesizing Storage Lipids) (human, UniProt Q96MH6 1-324, N-glycosylation at its N-terminus (N-X-S/T motif; N5Q mutant served as negative control))", "T1 construct": "It is an ER membrane protein and was assayed in cells or cell lysates; also called 3xHA-DIESL; transmembrane protein 68; not shown: the N-terminal position is inferred only from the name 3xH", "T1 sequence": "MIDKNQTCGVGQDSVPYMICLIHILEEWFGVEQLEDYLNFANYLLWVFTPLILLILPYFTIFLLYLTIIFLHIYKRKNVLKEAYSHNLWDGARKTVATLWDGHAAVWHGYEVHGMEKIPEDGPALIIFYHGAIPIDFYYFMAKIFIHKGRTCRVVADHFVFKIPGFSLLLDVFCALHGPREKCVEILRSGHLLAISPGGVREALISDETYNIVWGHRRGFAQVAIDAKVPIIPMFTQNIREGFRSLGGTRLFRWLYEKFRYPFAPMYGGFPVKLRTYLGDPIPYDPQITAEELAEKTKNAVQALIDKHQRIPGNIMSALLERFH", "experiment": "summary of the examples (crosslinking and co-immunoprecipitation)", "description": "HAP1 ΔDIESL and ATMX1ΔDIESL cells reconstituted with 3xHA-DIESL, or HeLa WT cells expressing 3xHA-DIESL, were washed with PBS and incubated in 1% paraformaldehyde for 20 minutes at room temperature. Cross-linking reactions were quenched by incubation in 0.2 M glycine for 10 minutes. Cells were then lysed in RIPA buffer on ice as described above, sonicated and protein concentrations were determined. Samples were separated by SDS-PAGE and immunoblotted as described above.\nHAP1 ΔDIESL cells reconstituted with 3xHA-DIESL, grown to confluence in a 6-well plate, were lysed in 400 μl IP buffer (25 mM HEPES PH 7.0, 150 mM NaCl, 1% detergent [Tween-20 unless otherwise indicated], and protease/phosphatase inhibitor cocktails) on ice, sonicated and cleared by centrifugation. 250 μl of lysate was incubated with 10 μl of PBS-washed anti-HA magnetic beads (Pierce) overnight while rotating at 4° C. The following day, beads were washed three times in IP buffer before elution in SDS-PAGE sample buffer at 90° C. for 20 minutes. One-quarter of this eluate (along with the corresponding amount of input sample) were separated by SDS-PAGE and subjected to immunoblot analysis as above."}}, "data": [{"molecule": "CCOC(=O)[C@@]1(CCCCCCOc2ccc(Cl)cc2)CO1", "note": "[etomoxir]", "values": [{"measurement": "Effect of CPT1A inhibition on the oleic acid rescue", "setting": "RPE1 cells; DIESL-deficient RPE1 cells without lipoproteins plus oleic acid, data not shown", "result": "sensitive"}]}, {"molecule": "CCCCCCCC/C=C\\CCCCCCCC(=O)O", "note": "[oleic acid]", "values": [{"measurement": "Rescue of decreased mitochondrial membrane potential and ATP levels", "setting": "RPE1 cells; DIESL-deficient RPE1 cells, lipoprotein-deficient medium supplemented with 50 µM oleic acid for 24 hours, FIG. 19F", "result": "rescued"}]}, {"molecule": "B1", "values": [{"measurement": "binding result", "setting": "[1]", "result": "binds"}]}]}
